Measured values from paper PMC3026848 (Bioorganic & medicinal chemistry, 2010).
Read-outs that look alike come from different tables or passages of the source.

How the values were obtained:
melanoma = melanoma chemotherapy; cited from earlier work
UACC-62 cells = assay: Cell cycle distribution by flow cytometry; format: cell-based, human; conditions: UACC-62, 6 days, 0.01 µM to 1 µM, PI staining
[1] = system: PC-3 (human prostate cancer); assay: Screening against PC-3; format: cell-based; conditions: unpublished data from this laboratory
[2] = system: NCI-H226 (human lung cancer); assay: Screening against NCI-H226; format: cell-based; conditions: unpublished data from this laboratory
[3] = system: UO-31 (human renal cancer); assay: Screening against UO-31; format: cell-based; conditions: unpublished data from this laboratory
A431(human skin cancer) = assay: Screening against A431; format: cell-based; conditions: unpublished data from this laboratory
[4] = cited from earlier work
[5] = high dosages; cited from earlier work

In the case of `CN(C)/N=N/c1[nH]cnc1C(N)=O` [Dacarbazine, dacarbazine], the response rate (melanoma) is given as 10% to 20.
For `CC(=O)N[C@@H](CSC(=O)Nc1ccc(Cl)cc1)C(=O)O` [NACC, N-Acetyl-S-(p-chlorophenylcarbamoyl)cysteine], the “effect on cell cycle distribution” value (UACC-62 cells) was “no change in cell cycle distribution was observed”, the “activity against PC-3” value [1] was “Poor activities” and the “activity against NCI-H226” value [2] was “Poor activities”. The “activity against UO-31” value [3] was “Poor activities”, the “activity against A431” value (A431(human skin cancer)) was “Poor activities” and the protein binding ([4]; reported earlier) was 84%.
For `O=C(Nc1ccc(Cl)cc1)NS(=O)(=O)c1ccc2c(c1)CCC2` [Sulofenur, reference compound], the protein binding [4] is given as “greater than 99%” and the “adverse effects in clinical trials” value [5] is given as “hemolytic anemia and methemoglobinemia were observed”.
